Test results reported in PMC10779987, “Machine-Learning- and Structure-Based Virtual Screening for Selecting Cinnamic Acid Derivatives as Leishmania major DHFR-TS Inhibitors” (Molecules, 2023).
Like-named read-outs stand apart in the source and are kept apart here.

Key:
TNBC cells = conditions: read-out: IC50, TNBC cells in vitro; FAK inhibitor; proliferation, invasion, migration; cited from earlier work
Leishmania amastigotes = system: Leishmania amastigotes; parameters: method as in earlier work; conditions: ref 24 (Gouri et al.); read-out: IC50 against Leishmania amastigotes; cited from earlier work
LmDHFR-TS = molecular target: T1, LmDHFR-TS (Leishmania major, UniProt P07382); experiment: LmDHFR-TS enzymatic inhibition assay (spectrophotometric standard DHFR assay); assay type: biochemical; conditions: for SI (selectivity index): HsDHFR versus LmDHFR-TS
T1 construct: made in house
Experimental: The determination of IC50 values involved analyzing concentration-response curves within the 0.1–128 μM range, employing spectrophotometric monitoring of enzymatic activity in a standard DHFR assay.
(§1) Purification and kinetic characterization of the recombinant LmDHFR-TS protein were performed according to the previously reported procedures, while HsDHFR protein was obtained from the commercial assay kit (CS0340, Merck KGaA, Darmstadt, Germany). […] These tested compounds were available from our in-house compound library.
(§2) The assay was conducted with either LmDHFR-TS or HsDHFR (2.7 nM), bovine serum albumin (BSA, 1 mg/mL), N-[tris(hydroxymethyl)-methyl]-2-aminoethanesulfonic acid (TES) buffer (100 mM, pH 7.0, 150 mM β-mercaptoethanol, 2 mM ethylenediaminetetraacetic acid (EDTA)), and nicotinamide adenine dinucleotide phosphate (NADPH, 100 μM), along with varying concentrations of the test compounds (0.1–128 μM). The reaction was initiated by adding the substrate (7,8-dihydrofolate (H2F), 20 μM) and monitored for 360 s at 340 nm, measuring the oxidation of NADPH to NADP+. This allowed the determination of the initial reaction rate (Vo) through linear regression analysis of the resulting absorbance profile.

HsDHFR = molecular target: T2, HsDHFR (Homo sapiens, UniProt P00374); experiment: HsDHFR enzymatic inhibition assay (spectrophotometric standard DHFR assay); assay type: biochemical
T2 construct: purchased Merck KGaA CS0340
T2 sequence (P00374 1-187): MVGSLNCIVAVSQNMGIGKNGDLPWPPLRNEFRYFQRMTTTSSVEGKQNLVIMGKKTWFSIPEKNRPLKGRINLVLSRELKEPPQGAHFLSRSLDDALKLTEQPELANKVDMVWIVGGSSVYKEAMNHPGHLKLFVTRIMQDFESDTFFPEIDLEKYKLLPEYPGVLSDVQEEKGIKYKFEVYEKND
Experimental: Following this, we calculated the selectivity index (SI) based on the results obtained from in vitro tests using the recombinant protein of Homo sapiens (Hs) DHFR.
as §1, §2

HepG2 = conditions: read-out: IC50 cytotoxic activity, HepG2; HepG2 cell line; cited from earlier work
BEL-7402 = conditions: read-out: IC50 cytotoxic activity, BEL-7402; BEL-7402 cell line; cited from earlier work
[1] = recombinant LmDHFR-TS 2.7 nM, 0.1–128 μM test range, triplicate
[2] = HsDHFR 2.7 nM, 0.1–128 μM test range, triplicate, read-out: HsDHFR IC50

T1 sequence (P07382 whole entry): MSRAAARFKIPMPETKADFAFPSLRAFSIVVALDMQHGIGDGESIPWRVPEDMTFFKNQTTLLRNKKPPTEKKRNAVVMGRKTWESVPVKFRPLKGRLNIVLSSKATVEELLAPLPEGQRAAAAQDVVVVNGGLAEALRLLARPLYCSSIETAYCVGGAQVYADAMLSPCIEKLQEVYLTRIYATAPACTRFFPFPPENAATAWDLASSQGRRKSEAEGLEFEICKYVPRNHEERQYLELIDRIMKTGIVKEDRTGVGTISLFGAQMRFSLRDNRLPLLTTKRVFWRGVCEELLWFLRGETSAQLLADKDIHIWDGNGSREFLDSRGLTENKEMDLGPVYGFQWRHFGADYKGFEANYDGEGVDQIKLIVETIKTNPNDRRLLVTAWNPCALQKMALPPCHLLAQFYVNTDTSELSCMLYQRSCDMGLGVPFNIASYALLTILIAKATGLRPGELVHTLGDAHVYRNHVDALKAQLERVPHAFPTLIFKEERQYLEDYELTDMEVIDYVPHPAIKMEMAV

| SMILES | IC50 (Leishmania amastigotes) | IC50 (LmDHFR-TS) | IC50 (HsDHFR; [2]) | other results |
| --- | --- | --- | --- | --- |
| CN(C)CCN(C(=O)/C=C/c1c[nH]c2ccccc12)c1ccccn1 [(E)-N-(2-(dimethylamino)ethyl)-3-(1H-indol-3-yl)-N-(pyridin-2-yl) acrylamide] | – | – | – | IC50 (TNBC cells): 8.37 µM |
| O=c1cc(-c2ccccc2)oc2cc(O)cc(O)c12 [Compound 69, chrysin] | 13 µM | – | – | – |
| COc1ccc([C@@H]2CC(=O)c3c(O)cc(O[C@@H]4O[C@H](CO[C@@H]5O[C@@H](C)[C@H](O)[C@@H](O)[C@H]5O)[C@@H](O)[C@H](O)[C@H]4O)cc3O2)cc1O [Compound 140, hesperidin] | – | 21.6 µM | – | SI (selectivity index) (LmDHFR-TS): 4.0; LmDHFR-TS IC50 (LmDHFR-TS; [1]): low activity; IC50 (HsDHFR): 86.5 µM |
| O=C(/C=C/c1ccc(O)c2c1[C@H](C(=O)O)[C@@H](c1ccc(O)c(O)c1)O2)O[C@H](Cc1ccc(O)c(O)c1)C(=O)O [Compound 237, lithospermic acid] | – | 7.5 µM | 22.6 µM | – |
| COc1ccc(C[C@H]2COC(=O)[C@@H]2Cc2cc(OC)c(O)c(-c3cc(C[C@H]4C(=O)OC[C@@H]4Cc4ccc(OC)c(OC)c4)cc(OC)c3O)c2)cc1OC [Compound 306, diarctigenin] | – | 6.1 µM | 27.9 µM | – |
| COc1cc(C[C@H]2COC(=O)[C@@H]2Cc2cc(OC)c3c(c2)[C@H](CO)[C@@H](c2ccc(O)c(OC)c2)O3)ccc1O [Compound 308, isolappaol A] | – | 10.1 µM | 44.8 µM | – |
| C[C@H]1CCC/C=C/[C@@H]2C[C@H](O)C[C@H]2[C@H](OC(=O)/C=C/c2ccc(N(C)C)cc2)/C=C/C(=O)O1 [brefeldin A 4-O-(4)-dimethylaminocinnamate] | – | – | – | IC50 (HepG2): 0.29 µM; IC50 (BEL-7402): 0.84 µM |
| O=C(O)/C=C/c1ccccc1 [cinnamic acid] | 0.25 µM | – | – | – |
| O=c1cc(-c2ccc(O[C@@H]3O[C@H](CO)[C@@H](O)[C@H](O)[C@H]3O)cc2)oc2cc(O)c([C@@H]3O[C@H](CO)[C@@H](O)[C@H](O)[C@H]3O)c(O)c12 [isovitexin 4′-O-glucoside] | – | – | 126 µM | SI (selectivity index) (LmDHFR-TS): 2.4; LmDHFR-TS IC50 (LmDHFR-TS; [1]): low activity; IC50 (LmDHFR-TS; recombinant LmDHFR-TS 2.7 nM, 0.1–128 μM test range, triplicate, read-out: LmDHFR-TS IC50): 53.2 µM |
| C=CC(C)(C)c1cc(/C=C/C(=O)c2ccc(O)cc2)c(OC)cc1O [licochalcone A] | 0.9 µM | – | – | – |
| O=c1cc(-c2ccc(O)c(O)c2)oc2cc(O)cc(O)c12 [luteolin] | 3.12 µM | – | – | – |
| O=c1c(O)c(-c2ccc(O)c(O)c2)oc2cc(O)cc(O)c12 [quercetin] | 10.5 µM | – | – | – |
| C[C@@H]1O[C@@H](OC[C@H]2O[C@@H](Oc3c(-c4ccc(O)c(O)c4)oc4cc(O)cc(O)c4c3=O)[C@H](O)[C@@H](O)[C@@H]2O)[C@H](O)[C@H](O)[C@H]1O [rutin] | – | 41.7 µM | 189 µM | SI (selectivity index) (LmDHFR-TS): 4.5; LmDHFR-TS IC50 (LmDHFR-TS; [1]): low activity |
